Experimental findings from ChEMBL document CHEMBL1909046, “DrugMatrix in vitro pharmacology data” are described below.

The target of one assay is T1, Androgen receptor (Rattus norvegicus, UniProt P15207). Also: in other assays of this panel Not Active means under 50% inhibition at 10 µM.
T1 sequence (P15207 whole entry): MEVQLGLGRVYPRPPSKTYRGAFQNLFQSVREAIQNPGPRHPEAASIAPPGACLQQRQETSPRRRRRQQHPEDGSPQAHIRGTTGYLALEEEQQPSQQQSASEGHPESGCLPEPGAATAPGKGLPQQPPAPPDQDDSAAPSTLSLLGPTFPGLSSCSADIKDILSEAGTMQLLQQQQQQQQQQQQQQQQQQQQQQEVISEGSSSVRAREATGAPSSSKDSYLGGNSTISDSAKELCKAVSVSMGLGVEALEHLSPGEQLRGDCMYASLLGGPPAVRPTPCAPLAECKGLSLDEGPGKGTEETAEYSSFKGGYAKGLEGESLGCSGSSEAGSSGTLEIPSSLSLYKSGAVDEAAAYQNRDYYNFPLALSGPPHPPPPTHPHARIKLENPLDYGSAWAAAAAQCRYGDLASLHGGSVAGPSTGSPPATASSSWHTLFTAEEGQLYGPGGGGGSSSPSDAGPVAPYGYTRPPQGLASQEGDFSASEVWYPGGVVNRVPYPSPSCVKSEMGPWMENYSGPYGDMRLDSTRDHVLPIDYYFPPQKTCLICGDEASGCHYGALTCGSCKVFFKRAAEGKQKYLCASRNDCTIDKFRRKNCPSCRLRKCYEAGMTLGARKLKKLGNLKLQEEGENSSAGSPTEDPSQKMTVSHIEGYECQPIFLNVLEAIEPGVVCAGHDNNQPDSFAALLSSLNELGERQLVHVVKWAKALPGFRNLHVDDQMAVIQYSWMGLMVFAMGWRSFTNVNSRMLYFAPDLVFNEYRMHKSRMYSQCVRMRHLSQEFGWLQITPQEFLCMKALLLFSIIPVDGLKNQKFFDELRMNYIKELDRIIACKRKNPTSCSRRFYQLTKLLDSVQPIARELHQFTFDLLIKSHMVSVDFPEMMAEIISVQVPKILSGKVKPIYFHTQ

The target in the next assay is T2, Caspase-1 (Homo sapiens, UniProt P29466).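 Also: Caspase-1 enzyme inhibition assay with a peptide substrate; in other assays of this panel Not Active means under 50% inhibition at 10 µM.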
T2 sequence (P29466 whole entry): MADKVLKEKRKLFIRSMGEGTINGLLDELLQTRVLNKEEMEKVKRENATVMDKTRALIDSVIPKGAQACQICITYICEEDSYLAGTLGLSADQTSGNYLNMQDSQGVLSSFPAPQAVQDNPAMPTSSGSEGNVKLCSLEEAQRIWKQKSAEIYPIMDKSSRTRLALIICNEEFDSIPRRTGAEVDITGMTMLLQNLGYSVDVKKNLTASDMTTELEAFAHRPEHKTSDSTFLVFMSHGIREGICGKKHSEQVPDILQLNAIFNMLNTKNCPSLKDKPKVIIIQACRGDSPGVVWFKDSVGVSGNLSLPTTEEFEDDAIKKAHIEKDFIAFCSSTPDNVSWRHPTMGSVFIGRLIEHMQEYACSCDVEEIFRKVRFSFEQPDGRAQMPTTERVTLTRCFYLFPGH
On the set-up: species or system Escherichia coli.

In a further assay the target is Adenosine receptor A2a (Homo sapiens, UniProt P29274). In words: DRUGMATRIX: Adenosine A2A radioligand binding (ligand: […]). It counts as cell membranes, HEK293, Membrane. The settings on record: hek293; Not Active = under 50% inhibition at 10 µM.
A further assay addresses T3, Thromboxane-A synthase (Homo sapiens, UniProt P24557).
T3 sequence (P24557 whole entry): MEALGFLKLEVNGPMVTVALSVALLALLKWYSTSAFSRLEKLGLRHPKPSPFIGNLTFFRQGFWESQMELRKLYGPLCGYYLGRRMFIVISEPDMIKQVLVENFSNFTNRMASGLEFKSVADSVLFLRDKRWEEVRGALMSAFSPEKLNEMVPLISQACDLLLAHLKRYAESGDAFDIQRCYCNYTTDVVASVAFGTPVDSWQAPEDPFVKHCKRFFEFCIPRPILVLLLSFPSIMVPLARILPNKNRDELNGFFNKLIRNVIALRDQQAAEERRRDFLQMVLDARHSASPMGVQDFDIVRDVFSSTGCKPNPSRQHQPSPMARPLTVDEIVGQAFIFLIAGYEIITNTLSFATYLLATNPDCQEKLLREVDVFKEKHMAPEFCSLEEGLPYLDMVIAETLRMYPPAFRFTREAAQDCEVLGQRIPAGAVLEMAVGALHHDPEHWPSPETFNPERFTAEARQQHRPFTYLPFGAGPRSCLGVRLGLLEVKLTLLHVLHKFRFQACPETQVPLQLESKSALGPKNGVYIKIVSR
In words: biochemical. The assay is classed as tissue-based, Platelet. The settings on record: platelet.

For assay [1], the target named is T4, 5-hydroxytryptamine receptor 2C (Homo sapiens, UniProt P28335).
T4 sequence (P28335 whole entry): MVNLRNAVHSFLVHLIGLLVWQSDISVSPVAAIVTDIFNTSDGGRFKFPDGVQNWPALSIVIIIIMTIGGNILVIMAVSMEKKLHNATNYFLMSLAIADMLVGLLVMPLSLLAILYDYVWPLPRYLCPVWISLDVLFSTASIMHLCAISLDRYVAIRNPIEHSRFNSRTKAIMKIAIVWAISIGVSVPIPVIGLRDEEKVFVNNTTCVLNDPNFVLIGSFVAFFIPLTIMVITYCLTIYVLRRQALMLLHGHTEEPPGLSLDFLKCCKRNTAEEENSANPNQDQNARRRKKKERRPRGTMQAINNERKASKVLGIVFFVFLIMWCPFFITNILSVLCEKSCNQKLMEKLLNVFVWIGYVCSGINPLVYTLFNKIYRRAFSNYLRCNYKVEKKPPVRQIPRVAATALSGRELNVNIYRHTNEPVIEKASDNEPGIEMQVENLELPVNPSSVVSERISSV
As to the kind of experiment: DRUGMATRIX: Serotonin (5-Hydroxytryptamine) 5-HT2C radioligand binding (ligand: [3H] Mesulergine). The assay is classed as cell membranes, CHO-K1, Membrane. The settings on record: Not Active = under 50% inhibition at 10 µM; for Ki: read-out: Ki.

In general, IC50 refers to the concentration at which inhibition is half-maximal. For orientation: Ki means the dissociation constant of the complex between target and ligand, obtained from inhibition or displacement.

Sequence of Adenosine receptor A2a (P29274 whole entry): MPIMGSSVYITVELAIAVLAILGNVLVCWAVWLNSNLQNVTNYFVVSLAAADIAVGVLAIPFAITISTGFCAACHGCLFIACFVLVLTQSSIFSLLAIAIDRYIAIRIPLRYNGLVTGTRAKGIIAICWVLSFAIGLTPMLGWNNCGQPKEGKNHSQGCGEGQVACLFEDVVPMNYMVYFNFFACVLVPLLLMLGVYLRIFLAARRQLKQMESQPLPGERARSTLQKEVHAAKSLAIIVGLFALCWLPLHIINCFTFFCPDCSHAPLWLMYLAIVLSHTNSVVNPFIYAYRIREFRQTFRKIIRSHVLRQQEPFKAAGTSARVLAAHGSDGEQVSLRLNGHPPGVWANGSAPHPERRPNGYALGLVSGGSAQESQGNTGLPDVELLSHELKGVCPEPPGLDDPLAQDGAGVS

With `O=c1[nH]c2ccccc2c2ccccc12`, the IC50 entry (against Androgen receptor; against Caspase-1; on Adenosine receptor A2a; against Thromboxane-A synthase; in assay [1] (cho-k1)) was “Not Active” throughout.
As to `CNC[C@H](O)c1ccc(O)c(O)c1` [EPINEPHRINE], the IC50 result (against Caspase-1; on Adenosine receptor A2a; against Thromboxane-A synthase; in assay [1] (cho-k1)) was “Not Active” in each case.
As to `CC[C@H]1OC(=O)[C@H](C)[C@@H](O[C@H]2C[C@@](C)(OC)[C@@H](O)[C@H](C)O2)[C@H](C)[C@@H](O[C@@H]2O[C@H](C)C[C@H](N(C)C)[C@H]2O)[C@](C)(O)C[C@@H](C)C(=O)[C@H](C)[C@@H](O)[C@]1(C)O` [ERYTHROMYCIN], the IC50 result (against Caspase-1; at Adenosine receptor A2a; against Thromboxane-A synthase; in assay [1] (cho-k1)) was “Not Active” in each case.
For `CC12CCC(CC1)C(C)(C)O2` [EUCALYPTOL], the IC50 entry (at Caspase-1; at Adenosine receptor A2a; on Thromboxane-A synthase; in assay [1] (cho-k1)) was “Not Active” each time.
With `NC(N)=Nc1nc(CSCCC(N)=NS(N)(=O)=O)cs1` [FAMOTIDINE], the IC50 result (on Caspase-1; on Adenosine receptor A2a; at Thromboxane-A synthase; in assay [1] (cho-k1)) was “Not Active” each time.
In the case of `COC(=O)Nc1nc2ccc(Sc3ccccc3)cc2[nH]1` [FENBENDAZOLE], the concentration for half-maximal inhibition (IC50) entry (on Caspase-1; at Adenosine receptor A2a; against Thromboxane-A synthase; in assay [1] (cho-k1)) was “Not Active” throughout.
Turning to `Nc1nc(F)nc2c1ncn2[C@@H]1O[C@H](CO)[C@@H](O)[C@@H]1O` [FLUDARABINE], the IC50 entry (against Caspase-1; at Adenosine receptor A2a; at Thromboxane-A synthase; in assay [1] (cho-k1)) was “Not Active” each time.
In the case of `NS(=O)(=O)c1cc(C(=O)O)c(NCc2ccco2)cc1Cl` [FUROSEMIDE], the IC50 result (at Caspase-1; at Adenosine receptor A2a; at Thromboxane-A synthase; in assay [1] (cho-k1)) was “Not Active” each time.
On to `COc1ccc(Cl)cc1C(=O)NCCc1ccc(S(=O)(=O)NC(=O)NC2CCCCC2)cc1` [GLYBURIDE], for which the concentration for half-maximal inhibition (IC50) result (on Caspase-1; on Adenosine receptor A2a; against Thromboxane-A synthase; in assay [1] (cho-k1)) was “Not Active” each time.
As to `O=C(O)CO` [GLYCOLIC ACID], the IC50 entry (on Caspase-1; on Adenosine receptor A2a; against Thromboxane-A synthase; in assay [1] (cho-k1)) was “Not Active” throughout.
For `Clc1cc(Cl)c(OCC#CI)cc1Cl` [HALOPROGIN], the IC50 result on Caspase-1 is “Not Active”; at Adenosine receptor A2a, “Not Active”; against Thromboxane-A synthase it was “Not Active”; in assay [1] (read-out: IC50), 2600 nM. In assay [1], the Ki amounted to 1360 nM.
`CCN(CCO)CCCC(C)Nc1ccnc2cc(Cl)ccc12` (stereo not drawn) [HYDROXYCHLOROQUINE]: the IC50 result (on Caspase-1; at Adenosine receptor A2a; at Thromboxane-A synthase; in assay [1] (cho-k1)) was “Not Active” each time.
In the case of `O=C(NCCN1CCOCC1)c1ccc(Cl)cc1` [MOCLOBEMIDE], the IC50 result (against Caspase-1; at Adenosine receptor A2a; on Thromboxane-A synthase; in assay [1] (cho-k1)) was “Not Active” in each case.
`Cc1ccnc2c1NC(=O)c1cccnc1N2C1CC1` [NEVIRAPINE]: the IC50 entry (against Caspase-1; on Adenosine receptor A2a; against Thromboxane-A synthase; in assay [1] (cho-k1)) was “Not Active” throughout.
As to `O=C1CN(/N=C/c2ccc([N+](=O)[O-])o2)C(=O)N1` [NITROFURANTOIN], the IC50 entry (on Caspase-1; at Adenosine receptor A2a; against Thromboxane-A synthase; in assay [1] (cho-k1)) was “Not Active” in each case.
Turning to `C#C[C@]1(O)CC[C@H]2[C@@H]3CCC4=CC(=O)CC[C@@H]4[C@H]3CC[C@@]21C` [NORETHINDRONE], the IC50 entry (against Caspase-1; on Adenosine receptor A2a; against Thromboxane-A synthase; in assay [1] (cho-k1)) was “Not Active” each time.
On to `O=C(O)CCc1nc(-c2ccccc2)c(-c2ccccc2)o1` [OXAPROZIN], for which the IC50 entry (on Caspase-1; on Adenosine receptor A2a; at Thromboxane-A synthase; in assay [1] (cho-k1)) was “Not Active” in each case.
Take `NC(=O)NC(=O)Cc1ccccc1` [PHENACEMIDE]: the IC50 entry (against Caspase-1; at Adenosine receptor A2a; on Thromboxane-A synthase; in assay [1] (cho-k1)) was “Not Active” each time.
Consider `O=C1c2ccccc2C(=O)C1c1ccccc1` [PHENINDIONE], for which the IC50 entry (against Caspase-1; on Adenosine receptor A2a; against Thromboxane-A synthase; in assay [1] (cho-k1)) was “Not Active” throughout.
For `CCC1(c2ccccc2)C(=O)NC(=O)NC1=O` [PHENOBARBITAL], the IC50 result (against Caspase-1; at Adenosine receptor A2a; against Thromboxane-A synthase; in assay [1] (cho-k1)) was “Not Active” throughout.
With `Oc1ccccc1` [PHENOL], the IC50 result (against Caspase-1; at Adenosine receptor A2a; against Thromboxane-A synthase; in assay [1] (cho-k1)) was “Not Active” in each case.
On to `c1ccc2c(c1)Nc1ccccc1S2` [PHENOTHIAZINE], for which the IC50 entry was “Not Active” on Caspase-1, “Not Active” on Adenosine receptor A2a, “Not Active” on Thromboxane-A synthase and 2240 nM in assay [1] (read-out: IC50). The inhibitory constant (Ki) in assay [1] was 1170 nM.
Consider `CCN1CCN(C(=O)N[C@@H](C(=O)N[C@@H]2C(=O)N3[C@@H]2SC(C)(C)[C@@H]3C(=O)O)c2ccccc2)C(=O)C1=O` [PIPERACILLIN], for which the IC50 entry (on Caspase-1; on Adenosine receptor A2a; against Thromboxane-A synthase; in assay [1] (cho-k1)) was “Not Active” throughout.
For `COc1cc(NC(C)CCCN)c2ncccc2c1` (stereo not drawn) [PRIMAQUINE], the IC50 result (against Caspase-1; at Adenosine receptor A2a; at Thromboxane-A synthase; in assay [1] (cho-k1)) was “Not Active” in each case.
As to `CC(CN1c2ccccc2Sc2ccccc21)N(C)C` (stereo not drawn) [PROMETHAZINE], the IC50 entry against Caspase-1 was “Not Active”; on Adenosine receptor A2a, “Not Active”; against Thromboxane-A synthase it was “Not Active”; in assay [1] (read-out: IC50) it was 12 nM. In addition, the Ki in assay [1] was 6.48 nM.
With `COc1ccc(C[C@H](N)C(=O)N[C@H]2[C@@H](O)[C@H](n3cnc4c(N(C)C)ncnc43)O[C@@H]2CO)cc1` [PUROMYCIN], the IC50 result (against Caspase-1; on Adenosine receptor A2a; against Thromboxane-A synthase; in assay [1] (cho-k1)) was “Not Active” throughout.
